Measurements taken from patent publication US20230227474A1, “COMPOSITIONS AND METHODS FOR CORRECTION OF ABERRANT SPLICING” (SKYHAWK THERAPEUTICS, INC., priority 2019, published 2023).
Like-named read-outs stand apart in the source and are kept apart here.

How the values were obtained:
[1] = system: mHTT protein; assay: mHTT Protein Assay (2B7-MW1, MSD); type: cell-based, human; conditions: GM04724 (CAG 70/20) Huntington's disease patient lymphoblast cells, 48 hours, read-out: HTT Potency - Protein: EC50 mHTT (average)
Method: Compounds are tested on GM04724 (CAG 70/20) Huntington's disease patient lymphoblast cells at doses ranging from 10 μM to 0.6 nM. 4,500 cells/well are seeded in 384 well plates. One plate replica is carried out for parallel viability testing by CellTiter Glo (CTG). Compounds are incubated for 48 hours. mHTT protein levels are assessed by the 2B7-MW1 assay via Mesoscale Discovery (MSD) as previously reported (Macdonald et al., 2014). The antibody pair is comprised of previously characterized monoclonals (2B7 and MW1) interrogating two regions for HTT conformation and biological properties: the N17 domain and the polyQ domain (Baldo et al., 2012; Ko et., 2001). 2B7-MW1 is dependent on subject/animal specific levels of HTT at the time of treatment. 2B7-MW1 is dependent on polyQ expansion (e.g., the higher the expansion the higher the signal) and on mHTT size (e.g., a similar polyQ will give higher signal with smaller HTT size). The viability readout is carried out by CTG according to the manufacturer's instructions. The results are show in Table B-5.

[2] = system: SMN protein; assay: SMN Protein Assay (MSD); type: cell-based, human; conditions: SMA patient fibroblasts (GM03813), 48 hours, read-out: SMN2 Potency- Protein: Protein FL EC50 (average)
Method: Compounds are tested on spinal muscular atrophy (SMA) patient fibroblasts (GM03813, Coriell) at doses ranging from 2.5 μM to 0.6 nM. 7000 cells/well are seeded in 96-well plates. Compounds are incubated for 48 hours and the cells are lysed with 100 μL of lysis buffer. 20 μL of lysate is used for SMN protein measurement by Mesoscale Discovery (MSD) assay developed by PharmOptima (Michigan). A standard curve prepared with SMN protein ranging from […] is used in each MSD plate to calculate the absolute SMN protein amount in each sample.

[3] = system: Huntingtin (HTT) transcripts; assay: Quantitative Splicing Assay (HTT); type: cell-based; conditions: Homo sapiens, GM04724 (CAG 70/20) Huntington's disease patient lymphoblasts, 24 h
Method: GM04724 (CAG 70/20) Huntington's disease patient lymphoblasts (Coriell) are plated in 96-well v-bottom plates at 50,000 cells/well. Immediately after plating, cells are dosed with compound for 24 h at concentrations ranging from 2.5 uM to 0.15 nM (0.1% DMSO). Treated cells are lysed and cDNA synthesized using the Fast Advanced Cells-to-Ct kit (Thermofisher A35378) according to the manufacturer's instructions. 2 uL of each cDNA are used in qPCR reactions to confirm the compound-induced inclusion of a cryptic exon within intron 49 of the Huntingtin (HTT) transcripts. The qPCR reactions are prepared in 384-well plates in 10 uL volume, using TaqMan™ Fast Advanced Master Mix [ThermoFisher; 4444965] with primers and probes shown in the table below. Reactions are run in a Quant Studio 6 qPCR instrument with default settings.

[4] = system: SMN2; assay: Quantitative Splicing Assay (SMN); type: cell-based; conditions: Homo sapiens, Fibroblast, SMA patient fibroblasts (GM03813), 24 h
Method: Spinal muscular atrophy (SMA) patient fibroblasts (GM03813, Coriell) are plated in 96-well plates at 50,000 cells/well. Immediately after plating, cells are dosed with compounds for 24 h at concentrations ranging from 2.5 μM to 0.6 nM (0.1% DMSO). Treated cells are lysed and cDNA synthesized using the Fast Advanced Cells-to-Ct kit (Thermofisher A35378) according to the manufacturer's instructions. 2 μL of each cDNA are used in qPCR reactions. The qPCR reactions are prepared in 384-well plates in 10 μL volume, using TaqMan™ Fast Advanced Master Mix (ThermoFisher; 4444965) with primers and probes shown in the table below. Reactions are run in a Quant Studio 6 qPCR instrument with default settings.

Row | Compound | EC50 [1] [nM] | EC50 [2] [nM] | EC50 ([3]; qPCR HTTcryp49b (cryptic exon within intron 49), read-out: HTT Potency - Splicing: E49b EC50 (average)) [nM] | EC50 ([3]; qPCR HTTex49_50, read-out: HTT Potency - Splicing: E49-50 EC50 (average)) [nM] | EC50 ([4]; qPCR SMN FL, read-out: SMN2 Potency- Splicing: Splicing FL EC50 (average)) [nM] | IC50 ([4]; qPCR SMN Δ7, read-out: SMN2 Potency- Splicing: Splicing D7 IC50 (average)) [nM]
1 | Oc1cc(-n2ccnc2)ccc1-c1cc2c(nn1)N([C@@H]1C[C@H]3CC[C@@H](C1)N3)CCO2 [Compound 3, 2-(8-((1R,3s,5S)-8-azabicyclo[3.2.1]octan-3-yl)-7,8-dihydro-6H-pyridazino[4,3-b][1,4]oxazin-3-yl)-5-(1H-imidazol-1-yl)phenol] | 501 to 10000 | 501 to 10000 | – | – | – | –
2 | Cn1cc(-c2ccc(-c3cc4c(nn3)N([C@@H]3C[C@H]5CC[C@@H](C3)N5)CCC4)c(O)c2)cn1 [Compound 2, 2-(8-((1R,3s,5S)-8-azabicyclo[3.2.1]octan-3-yl)-5,6,7,8-tetrahydropyrido[2,3-c]pyridazin-3-yl)-5-(1-methyl-1H-pyrazol-4-yl)phenol] | 0.01 to 15 | 0.01 to 15 | 0.01 to 15 | 0.01 to 15 | 16 to 50 | 0.01 to 15
3 | Oc1cc(-c2cn[nH]c2)ccc1-c1cc2c(nn1)N([C@@H]1C[C@H]3CC[C@@H](C1)N3)CCO2 [Compound 1, 2-(8-((1R,3s,5S)-8-azabicyclo[3.2.1]octan-3-yl)-7,8-dihydro-6H-pyridazino[4,3-b][1,4]oxazin-3-yl)-5-(1H-pyrazol-4-yl)phenol] | 501 to 10000 | 501 to 10000 | – | – | – | –
